Data reported in publication PMC7724566, “Prospects for Clinical Development of Stat5 Inhibitor IST5-002: High Transcriptomic Specificity in Prostate Cancer and Low Toxicity In Vivo” (Cancers, 2020).

Experiments:
MCM10 = assay: qRT-PCR mRNA level; assay type: cell-based, human; conditions: CWR22Pc cells, 6 µM vs. vehicle, 3 days
Description: (§1) Specifically, significant changes were evident in 21 of 203 genes associated with DNA replication and nuclear division (Figure 3B). Specifically, genes associated with minichromosome maintenance family (MCM2, MCM3, MCM4, MCM5, MCM10) were regulated by both IST5 and shStat5 in PC cells, and were associated with DNA replication and DNA replication initiation process as indicated by the functional module analysis (Figure 3). In addition, suppression of the top genes regulated by IST5 and genetic knockdown of Stat5 was confirmed by quantitative real-time polymerase chain reaction (qRT-PCR) in CWR22Pc cells after 3 days of Stat5 inhibition (Figure 3C). It is important to note that the gene expression changes induced by both shStat5 and IST5 in PC cells described here represent later changes in gene expression networks and the early genes (at 24 h) regulated by shStat5/IST5 might be different.
(§2) Figure 3 Pathway enrichment analysis of genes regulated similarly by IST vs. genetic knockdown of Stat5 in prostate cancer cells. […] (C), mRNA levels of MCM10 and BRCA2 were reduced, determined by quantitative real-time polymerase chain reaction (qRT-PCR), in CWR22Pc cells upon genetic knockdown of Stat5 by lentiviral expression of shStat5 vs. shCtrl or by treatment with IST5 (6 µM) vs. vehicle for 3 days. […]

BRCA2 = assay: qRT-PCR mRNA level; assay type: cell-based, human; conditions: CWR22Pc cells, 6 µM vs. vehicle, 3 days
Description: as §1, §2

## O=P(O)(O)OCC1OC(n2cnc3c(NCc4ccccc4)ncnc32)C(O)C1O (centres unmarked) [IST5]
MCM10
  mRNA level of MCM10: reduced
BRCA2
  mRNA level of BRCA2: reduced
